Molecules are shown by their SMILES.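 Dose response: 5 concentrations. Exposure: 48 h. Format: 96-well plates. Endpoint: linear interpolation; highest concentration if not reached. TGI denotes the concentration required for complete inhibition of growth.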

Test systems include SNB-75 CNS; TK-10 renal; U251 CNS; RXF 393 renal; NCI-H226 lung; SR leukemia; MDA-MB-231 breast; SN12C renal; NCI-H460 lung; SNB-19 CNS; ACHN renal; NCI/ADR-RES ovarian; DU-145 prostate; HOP-92 NSCLC; UACC-62 melanoma; COLO 205 colon; K-562 leukemia; OVCAR-5 ovarian; UO-31 renal.
What all share (experiment): inhibition of tumour cell growth, NCI panel, 48 h

Take `COc1ccc2cc(CN3CCC(C4CCN(Cc5ccc6cc(OC)ccc6c5)CC4)CC3)ccc2c1`: the TGI with SNB-75 CNS was found to be 11 µM; in the assay with TK-10 renal, 6.18 µM; with U251 CNS, 8.41 µM; in the assay with RXF 393 renal it was 11.8 µM; with NCI-H226 lung, 38.3 µM; with SR leukemia it was 3.6 µM. Also, the TGI with MDA-MB-231 breast worked out at 9.97 µM; with SN12C renal, 24 µM; in the assay on NCI-H460 lung it was 5.04 µM; in the assay on SNB-19 CNS it was 16.6 µM; in the assay with ACHN renal, 21.7 µM; in the assay on NCI/ADR-RES ovarian, 25.9 µM. In addition, the TGI with DU-145 prostate is 41.6 µM; in the assay on HOP-92 NSCLC, 8.91 µM; in the assay on UACC-62 melanoma, 3.74 µM; with COLO 205 colon it was 2.98 µM; in the assay on K-562 leukemia it was 2.12 µM; in the assay on OVCAR-5 ovarian it was over 76.7 µM. This compound also displayed a TGI in the assay on UO-31 renal of 9.78 µM.

Take `CCCCCCc1cc2cc(-c3cn4c(n3)sc3ccccc34)c(=O)oc2cc1O`: the TGI in the assay with SNB-75 CNS, in the assay with TK-10 renal, in the assay with U251 CNS, with RXF 393 renal, in the assay with NCI-H226 lung and in the assay with SR leukemia was over 100 µM throughout. In addition, the TGI in the assay on MDA-MB-231 breast, with SN12C renal, in the assay on NCI-H460 lung, in the assay on SNB-19 CNS, in the assay on ACHN renal and in the assay with NCI/ADR-RES ovarian was over 100 µM in each case. Besides, the TGI was over 100 µM with DU-145 prostate; over 100 µM in the assay on HOP-92 NSCLC; 5.58 µM with UACC-62 melanoma; over 100 µM in the assay with COLO 205 colon; over 100 µM in the assay with K-562 leukemia; over 100 µM in the assay on OVCAR-5 ovarian. This compound also registered a TGI in the assay with UO-31 renal of over 100 µM.

Regarding `CC(=O)N1C(CCc2ccccc2)CC(C)(C=O)C1Cc1ccc(O[Si](C(C)C)(C(C)C)C(C)C)cc1` (centres undefined), the TGI is 18.4 µM in the assay with SNB-75 CNS; 13.7 µM in the assay with TK-10 renal; 13.3 µM with U251 CNS; 5.81 µM in the assay with RXF 393 renal; 19.9 µM in the assay on NCI-H226 lung; over 21.7 µM in the assay on SR leukemia. Also, the TGI in the assay with MDA-MB-231 breast amounted to 11.1 µM; in the assay on SN12C renal, 9.06 µM; in the assay with NCI-H460 lung, 9.05 µM; with SNB-19 CNS it was 18.1 µM; in the assay with ACHN renal, 18.8 µM; with NCI/ADR-RES ovarian, 31.1 µM. The TGI in the assay on DU-145 prostate was 18.9 µM; with HOP-92 NSCLC, 23.7 µM; in the assay on UACC-62 melanoma it was 16.3 µM; in the assay on COLO 205 colon, 7.03 µM; in the assay with K-562 leukemia, over 26.1 µM; in the assay on OVCAR-5 ovarian it was 28.8 µM. In the assay with UO-31 renal, this compound came in with a TGI of 14.3 µM.

For `CO[C@@H]1C[C@H]2[C@@H]3CC[C@H]([C@H](C)COC(C)=O)[C@@]3(C)CC[C@@H]2[C@@]2(C)CC[C@H]3C[C@]312`, the TGI in the assay with SNB-75 CNS, in the assay with TK-10 renal, in the assay with U251 CNS, with RXF 393 renal, with NCI-H226 lung and in the assay on SR leukemia was over 100 µM each time. Also, the TGI with MDA-MB-231 breast, with SN12C renal, in the assay on NCI-H460 lung, with SNB-19 CNS, in the assay on ACHN renal and in the assay on NCI/ADR-RES ovarian was over 100 µM in each case. Further, the TGI in the assay with DU-145 prostate, with HOP-92 NSCLC, in the assay with COLO 205 colon, in the assay with K-562 leukemia, in the assay on OVCAR-5 ovarian and in the assay on UO-31 renal was over 100 µM each time.

For the compound `O=c1oc2ccccc2c(O)c1C(c1cccc(C(c2c(O)c3ccccc3oc2=O)c2c(O)c3ccccc3oc2=O)c1)c1c(O)c2ccccc2oc1=O`, the TGI was 41.6 µM in the assay with SNB-75 CNS; over 100 µM with TK-10 renal; over 100 µM with U251 CNS; over 100 µM with RXF 393 renal; over 100 µM in the assay with NCI-H226 lung; 58.8 µM in the assay on SR leukemia. In addition, the TGI was 99.3 µM with MDA-MB-231 breast; 83 µM in the assay on SN12C renal; over 100 µM with NCI-H460 lung; over 100 µM in the assay with ACHN renal; over 100 µM in the assay on NCI/ADR-RES ovarian; over 100 µM in the assay on DU-145 prostate. Moreover, the TGI was over 100 µM in the assay on HOP-92 NSCLC; 95.7 µM with UACC-62 melanoma; over 100 µM in the assay on COLO 205 colon; 53.5 µM in the assay with K-562 leukemia; over 100 µM in the assay on OVCAR-5 ovarian.

For `Cc1ccc(C(C)C)c(OCC(=O)N/N=C/c2c[nH]c3ccc(Br)cc23)c1`, the TGI in the assay with SNB-75 CNS was found to be 5.95 µM; in the assay on TK-10 renal, 9.15 µM; in the assay on U251 CNS, 11.1 µM; with RXF 393 renal, 3.42 µM; with SR leukemia, 4.97 µM; in the assay with MDA-MB-231 breast it was 9.89 µM. Moreover, the TGI in the assay with SN12C renal worked out at 13 µM; with NCI-H460 lung it was 6.4 µM; in the assay on SNB-19 CNS, 9.59 µM; in the assay with ACHN renal it was 16.5 µM; in the assay on NCI/ADR-RES ovarian, 6.6 µM; in the assay on DU-145 prostate, 8.06 µM. The TGI turned out to be 27.8 µM in the assay with HOP-92 NSCLC; 8.92 µM with UACC-62 melanoma; 3.55 µM in the assay on COLO 205 colon; 11.4 µM in the assay on K-562 leukemia; 17.6 µM in the assay on OVCAR-5 ovarian; 13.7 µM in the assay with UO-31 renal.

Regarding `O=C1N/C(=N\N=C\c2ccccc2)C2(CCCCC2)O1`, the TGI was 88.5 µM in the assay on SNB-75 CNS; over 100 µM with TK-10 renal; over 100 µM in the assay with U251 CNS; over 100 µM in the assay with RXF 393 renal; over 100 µM in the assay with NCI-H226 lung; 76.4 µM with SR leukemia. Besides, the TGI in the assay on MDA-MB-231 breast, with SN12C renal, in the assay with NCI-H460 lung, with SNB-19 CNS, in the assay on ACHN renal and with NCI/ADR-RES ovarian was over 100 µM each time. Moreover, the TGI in the assay on DU-145 prostate, in the assay with HOP-92 NSCLC, with UACC-62 melanoma, in the assay with COLO 205 colon, in the assay on K-562 leukemia and in the assay on OVCAR-5 ovarian was over 100 µM in each case. The same compound yielded a TGI in the assay on UO-31 renal of over 100 µM.

For the origin of these results see PubChem BioAssay (NCI).
